The numbers were not newly measured in paper PMC9804730 (Diabetes, Obesity & Metabolism, 2022), which cites them from elsewhere.

For series [1] the following is noted: N- and C-terminal degradation.

For the substance “(D‐Arg^35)‐sea lamprey PYY (1–36) [SL‐PYY]”, the “effect on insulin secretion” value was “insulinostatic”. For the same substance, the enzymatic stability result in series [1] was “N‐ and C‐terminally enzyme‐resistant”. Besides, the “effect on blood glucose levels in the acute setting” value (acute setting) is listed as “does not affect”.
